Results published in patent US7910569B2, “Microbicidal compositions and their use” (BASF Aktiengesellschaft, priority 2003, dated 2011).

Experiments:
Format in all cases: cell-based
[1] = system: fungi; assay: Surface protection, fungal resistance of coating (BS3900 G6); parameters: key: 0=no growth; 1=trace of growth; 2=growth on 1-10% of test face; 3=growth on 10-30% of test face; 4=growth on 30-70% of test face; 5=growth on 70-100% of test face
Procedure: Testing was performed according to the BS3900 G6 and BBA MOAT 33 methods for evaluation versus fungi and algae, respectively. The methods involve painting a substrate panel with the coating and leaching under running water for 72 hours. […] Performance is judged by comparing with suitable control samples i.e without biocide, a positive control and for fungi with substrate panels that have not been leached.
(§1) Performance rating of painted test substrates is as follows and a score of 0, 1 and 2 is considered as a pass • 0=no growth • 1=trace of growth • 2=growth on 1-10% of test face • 3=growth on 10-30% of test face • 4=growth on 30-70% of test face • 5=growth on 70-100% of test face. Surface Protection using CuHDO

[2] = system: algae; assay: Surface protection, algal resistance of coating (BBA MOAT 33); conditions: after leaching with running water for 72 hours
Procedure: Testing was performed according to the BS3900 G6 and BBA MOAT 33 methods for evaluation versus fungi and algae, respectively. The methods involve painting a substrate panel with the coating and leaching under running water for 72 hours. The substrates are incubated for 56 days after being inoculated with fungi or algae. Performance is judged by comparing with suitable control samples i.e without biocide, a positive control and for fungi with substrate panels that have not been leached.
as §1

[3] = system: Bacterial and Fungal Challenges; assay: In can preservation challenge test (IBRG draft method), overall efficacy; conditions: 1000 ppm, acrylic ester and acrylonitrile polymer dispersion
Procedure: (§2) Tests were performed according to the IBRG draft method (5.2, June 2001). This briefly entails the substrate being dosed with the biocide and allowed to equilibrate. Samples are inoculated once per week for 4 weeks and checked for recovery of organisms at 1, 3 and 7 days after inoculation.
(§3) Results to show efficacy in a polymer based on an acrylic ester and acrylonitrile polymer dispersion using: • 1000 ppm CuHDO • 1000 ppm in-situ generated CuHDO (by blending within the matrix or medium, 315 ppm of basic copper carbonate containing 57.5% copper content with 3492 ppm of a 30% water soluble solution of potassium salt of N′-hydroxy-N-cyclohexyldiazenium oxide (KHDO))
(§4) Using the following performance rating: • P=Pass (0-100 colonies) • F=Fail (101->1000 colonies)

[4] = system: Fungal Challenges; assay: In can preservation challenge test (IBRG draft method), fungal challenges; conditions: 1000 ppm, acrylic ester and acrylonitrile polymer dispersion
Procedure: as §2, §3, §4

[5] = system: Bacterial Challenges; assay: In can preservation challenge test (IBRG draft method), bacterial challenges; conditions: 1000 ppm, acrylic ester and acrylonitrile polymer dispersion
Procedure: as §2, §3, §4

[6] = 0.5% by weight, after leaching with running water for 72 hours
[7] = 0.5% by weight, coating as applied
[8] = 0.15% by weight, after leaching with running water for 72 hours
[9] = 0.15% by weight, coating as applied
[10] = 0.2% by weight, after leaching with running water for 72 hours
[11] = 0.2% by weight, coating as applied
[12] = 1.5% by weight, after leaching with running water for 72 hours
[13] = 1.5% by weight, coating as applied

CCCCNC(=O)OCC#CI [IPBC, reference compound]
FUNGAL GROWTH ASSESSMENT Plaster Substrate 28 days [1, 6]: 1 | FUNGAL GROWTH ASSESSMENT Plaster Substrate 56 days [1, 6]: 1 | FUNGAL GROWTH ASSESSMENT Wood Substrate 28 days [1, 6]: 1 | FUNGAL GROWTH ASSESSMENT Wood Substrate 56 days [1, 6]: 1 | FUNGAL GROWTH ASSESSMENT Plaster Substrate 28 days [1, 7]: 1 | FUNGAL GROWTH ASSESSMENT Plaster Substrate 56 days [1, 7]: 1 | FUNGAL GROWTH ASSESSMENT Wood Substrate 28 days [1, 7]: 1 | FUNGAL GROWTH ASSESSMENT Wood Substrate 56 days [1, 7]: 1

CCNc1nc(NC(C)(C)C)nc(SC)n1 [Terbutryn, reference compound]
ALGAL GROWTH ASSESSMENT 28 days ([2]; 0.5% by weight): 0.0 | ALGAL GROWTH ASSESSMENT 56 days ([2]; 0.5% by weight): 0.0

[Cu+2].[O-]/N=[N+](\[O-])C1CCCCC1.[O-]/N=[N+](\[O-])C1CCCCC1 [CuHDO, copper salt of N′-hydroxy-N-cyclohexyl-diazenium oxide]
Overall Efficacy ([3]; pH 5): F^2 (F=Fail (101->1000 colonies)) | Overall Efficacy ([3]; pH 7): P (P=Pass (0-100 colonies)) | Overall Efficacy ([3]; pH 9): P (P=Pass (0-100 colonies)) | Fungal Challenges ([4]; pH 5): F^2 (F=Fail (101->1000 colonies)) | Fungal Challenges ([4]; pH 7): P (P=Pass (0-100 colonies)) | Fungal Challenges ([4]; pH 9): P (P=Pass (0-100 colonies)) | Bacterial Challenges ([5]; pH 5): P (P=Pass (0-100 colonies)) | Bacterial Challenges ([5]; pH 7): P (P=Pass (0-100 colonies)) | Bacterial Challenges ([5]; pH 9): P (P=Pass (0-100 colonies)) | FUNGAL GROWTH ASSESSMENT Plaster Substrate 28 days [1, 8]: 1 | FUNGAL GROWTH ASSESSMENT Plaster Substrate 42 days [1, 8]: 1 | FUNGAL GROWTH ASSESSMENT Plaster Substrate 56 days [1, 8]: 2 (2=growth on 1-10% of test face) | FUNGAL GROWTH ASSESSMENT Wood Substrate 28 days [1, 8]: 1 | FUNGAL GROWTH ASSESSMENT Wood Substrate 42 days [1, 8]: 1 | FUNGAL GROWTH ASSESSMENT Wood Substrate 56 days [1, 8]: 2 (2=growth on 1-10% of test face) | FUNGAL GROWTH ASSESSMENT Plaster Substrate 28 days [1, 9]: 1 | FUNGAL GROWTH ASSESSMENT Plaster Substrate 42 days [1, 9]: 1 | FUNGAL GROWTH ASSESSMENT Plaster Substrate 56 days [1, 9]: 1 | FUNGAL GROWTH ASSESSMENT Wood Substrate 28 days [1, 9]: 1 | FUNGAL GROWTH ASSESSMENT Wood Substrate 42 days [1, 9]: 1 | FUNGAL GROWTH ASSESSMENT Wood Substrate 56 days [1, 9]: 1 | FUNGAL GROWTH ASSESSMENT Plaster Substrate 28 days [1, 10]: 2 (2=growth on 1-10% of test face) | FUNGAL GROWTH ASSESSMENT Plaster Substrate 56 days [1, 10]: 3 (3=growth on 10-30% of test face) | FUNGAL GROWTH ASSESSMENT Wood Substrate 28 days [1, 10]: 2 (2=growth on 1-10% of test face) | FUNGAL GROWTH ASSESSMENT Wood Substrate 56 days [1, 10]: 3 (3=growth on 10-30% of test face) | FUNGAL GROWTH ASSESSMENT Plaster Substrate 28 days [1, 11]: 1 | FUNGAL GROWTH ASSESSMENT Plaster Substrate 56 days [1, 11]: 1 | FUNGAL GROWTH ASSESSMENT Wood Substrate 28 days [1, 11]: 1 | FUNGAL GROWTH ASSESSMENT Wood Substrate 56 days [1, 11]: 1 | FUNGAL GROWTH ASSESSMENT Plaster Substrate 28 days [1, 12]: 1 | FUNGAL GROWTH ASSESSMENT Plaster Substrate 42 days [1, 12]: 1 | FUNGAL GROWTH ASSESSMENT Plaster Substrate 56 days [1, 12]: 1 | FUNGAL GROWTH ASSESSMENT Wood Substrate 28 days [1, 12]: 1 | FUNGAL GROWTH ASSESSMENT Wood Substrate 42 days [1, 12]: 1 | FUNGAL GROWTH ASSESSMENT Wood Substrate 56 days [1, 12]: 1 | FUNGAL GROWTH ASSESSMENT Plaster Substrate 28 days [1, 13]: 1 | FUNGAL GROWTH ASSESSMENT Plaster Substrate 42 days [1, 13]: 1 | FUNGAL GROWTH ASSESSMENT Plaster Substrate 56 days [1, 13]: 1 | FUNGAL GROWTH ASSESSMENT Wood Substrate 28 days [1, 13]: 1 | FUNGAL GROWTH ASSESSMENT Wood Substrate 42 days [1, 13]: 1 | FUNGAL GROWTH ASSESSMENT Wood Substrate 56 days [1, 13]: 1 | ALGAL GROWTH ASSESSMENT 28 days ([2]; 0.15% by weight): 2/2 | ALGAL GROWTH ASSESSMENT 42 days ([2]; 0.15% by weight): 1/1 | ALGAL GROWTH ASSESSMENT 56 days ([2]; 0.15% by weight): 0/1 | ALGAL GROWTH ASSESSMENT 28 days ([2]; 0.2% by weight): 0.1 | ALGAL GROWTH ASSESSMENT 56 days ([2]; 0.2% by weight): 1.2 | ALGAL GROWTH ASSESSMENT 28 days ([2]; 1.5% by weight): 0/0 | ALGAL GROWTH ASSESSMENT 42 days ([2]; 1.5% by weight): 0/0 | ALGAL GROWTH ASSESSMENT 56 days ([2]; 1.5% by weight): 0/0
